One experiment relates to Sphaerotheca fuliginea. The experiment is described as follows: Sphaerotheca test (cucumbers)/preventive. Conditions: preventive, 100 ppm a.i., evaluated 7 days after inoculation.
The test system of another experiment is Alternaria solani. The experiment is described as follows: Alternaria test (tomatoes)/preventive. It is filed as in vivo. The note with it: preventive, evaluated 3 days after inoculation.
A further experiment deals with Venturia inaequalis. The experiment is described as follows: Venturia test (apples)/preventive. The note with it: preventive, 100 ppm a.i., evaluated 10 days after inoculation.

Protocol for Sphaerotheca fuliginea: After the spray coating has dried on, the plants are inoculated with an aqueous spore suspension of Sphaerotheca fuliginea. The plants are then placed in a greenhouse at approximately 23° C. and a relative atmospheric humidity of approximately 70%.
The test is evaluated 7 days after the inoculation.
Protocol for Venturia inaequalis: After the spray coating has dried on, the plants are inoculated with an aqueous conidia suspension of the causal agent of apple scab (Venturia inaequalis) and then remain for 1 day in an incubation cabinet at approximately 20° C. and a relative atmospheric humidity of 100%.
The plants are then placed in a greenhouse at approximately 21° C. and a relative atmospheric humidity of approximately 90%.
The test is evaluated 10 days after the inoculation.

For `N#Cc1ccccc1NC(=O)c1snc(Cl)c1Cl` [F187, isotianil], the “Efficacy in % Found” value in the experiment on Sphaerotheca fuliginea stood at 0%; in the experiment on Alternaria solani (Table C1, tomatoes, 50 ppm a.i.) it was 36%; in the experiment on Venturia inaequalis, 0%.
With `Cc1cc(C(F)(F)F)nn1CC(=O)N1CCC(c2nc(C3=NOC(c4c(F)cccc4F)C3)cs2)CC1` (stereo not drawn) [F315, 1-(4-{4-[5-(2,6-difluorophenyl)-4,5-dihydro-1,2-oxazol-3-yl]-1,3-thiazol-2-yl}piperidin-1-yl)-2-[5-methyl-3-(trifluoromethyl)-1H-pyrazol-1-yl]ethanone], the “Efficacy in % Found” value with Alternaria solani (Table C1, tomatoes, 100 ppm a.i.) amounted to 0%.
Take fosetyl-aluminium [F281]: the “Efficacy in % Found” value in the experiment with Alternaria solani (Table C2, tomatoes, 100 ppm a.i.) was found to be 0%.
phosphorous acid and its salts [F298]: the “Efficacy in % Found” value with Alternaria solani (Table C2, tomatoes, 400 ppm a.i.) came to 35%.
